# Several values for one entry are separate records, joined by “and”; a condition that tells them apart may be missing. Equal entries are not always repeated.
# Molecular target: T1, TbERK8 (Trypanosoma brucei brucei, UniProt Q38B88)
# T1 sequence (Q38B88 1-442): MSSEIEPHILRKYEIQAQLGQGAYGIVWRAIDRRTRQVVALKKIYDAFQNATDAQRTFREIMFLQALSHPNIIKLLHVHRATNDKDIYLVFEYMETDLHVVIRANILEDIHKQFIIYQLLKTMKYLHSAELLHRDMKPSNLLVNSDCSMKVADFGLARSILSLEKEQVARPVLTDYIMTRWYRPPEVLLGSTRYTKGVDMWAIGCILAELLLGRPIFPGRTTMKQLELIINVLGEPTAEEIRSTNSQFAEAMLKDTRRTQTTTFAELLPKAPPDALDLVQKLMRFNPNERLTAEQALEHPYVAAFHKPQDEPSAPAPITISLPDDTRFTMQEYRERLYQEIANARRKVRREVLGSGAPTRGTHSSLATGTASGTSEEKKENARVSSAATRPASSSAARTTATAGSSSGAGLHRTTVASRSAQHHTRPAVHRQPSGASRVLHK
# Assay: Luciferase-based kinase inhibition assay (ATP luminescence), GST-tagged TbERK8 with MBP substrate
# Format: biochemical
# Parameters: raw luminescence, TbERK8: unit of the concentration uncertain
# Settings: for raw luminescence, TbERK8: replicate wells; for Luminescence Raw (Kinase-Glo): TbERK8
# Method: Escherichia coli strain Rosetta 2 (DE3) (Cat# 71397, MilliporeSigma, Burlington, MA) was transformed with the plasmid pGEX2T expressing the full-length hERK8 coding region or pGSTAg expressing the full-length TbERK8 coding region. One liter of Terrific Broth media containing 100 μg/ml Ampicillin and 30 μg/ml chloramphenicol in 2 L baffled flasks was inoculated with 25 mL from an overnight culture of Rosetta 2 strains harboring either the pGEX2T-hERK8 or pGSTAg-TbERK8 plasmid. Two baffled flasks were inoculated with each overnight strain and incubated and shaken at 175 RPM in a New Brunswick Innova 44R Incubator Shaker (Fischer Scientific, Pittsburgh, PA) at 37 °C until the cultures reached an O.D.600 of 0.94. Once the cultures in the flask reached the target O.D.600, the flasks were cooled to 4 °C in an ice water bath. The cooled cultures were induced by adding isopropyl β-D-1-thiogalactopyranoside (IPTG) to a final concentration of 0.1 mM and shaken at 16 °C for 16 hours at 175 RPM in a New Brunswick Innova 44R Incubator Shaker (Fischer Scientific, Pittsburgh, PA). On the next day, the cultures were pelleted by centrifugation at 9000 xg in a JLA 10.500 rotor (Beckman Coulter; Brea, CA), and the media was decanted. The pellet was flash-frozen in liquid nitrogen and then thawed on ice. The thawed pellet was resuspended in lysis buffer (25 mM Tris, 75 mM NaCl, 0.5% TritonX-100 and 0.5% Nonidet P-40, 1 mM phenylmethanesulfonyl fluoride, 1 mM benzamidine⋅HCl) and lysed using a microfluidizer M-110P from Microfluidics (Westwood, MA). The crude lysates were clarified by centrifugation at 140,000 xg in a 45Ti rotor (Beckman Coulter, Brea, CA) for 30 min at 4°C. The clarified lysate was loaded by gravity to a 3 mL glutathione agarose resin column (Cat# G-250–10, GOLDBIO, St. Louis, MO) formed in a 1.5 × 20 cm glass chromatography column (Cat# 7371522, Bio-Rad, Hercules, CA). The column was washed with 30 mL of PBS (pH 7.4) containing 1 mM DTT. Elution buffer (50 mM Tris buffer pH 8.0 containing 10 mM reduced glutathione and 1 mM DTT was added to the washed column), and 1 mL fractions were collected by gravity and examined by SDS-PAGE stained by Coomassie dye. Peak fractions pooled from the elution were dialyzed (4x 1:500 dilutions) in kinase buffer (30 mM Tris, pH 7.4, 10 mM MgCl2, 1 mM DTT, 5% glycerol).
# We performed kinase assays in buffer K (30 mM Tris pH 7.4, 10 mM MgCl2, 1 mM DTT, 5% glycerol, 50 μM ATP, and 0.1 mg/mL BSA) at 30°C for 30 min in 30 μL reactions. GST-tagged HsERK8 and TbERK8 were tested using myelin basic protein (MBP) (Cat# 13–110, Millipore, Darmstadt, Germany) as the substrate at increasing concentrations to determine the optimal activity for the assay. ATP consumption was determined by adding equal volumes of the kinase assay reagent (Promega, Cat# V5601, Madison, WI) following the manufacturer’s protocol. Luminescence was measured using the microplate reader (SpectraMax L, Molecular Devices, Sunnyvale, CA).
# These compounds were screened for kinase inhibition utilizing a luciferase-based assay. Briefly, the kinases were tested using MBP as the substrate at a 14-fold molar excess in 384-well flat-bottom white plates (BRANDTECH Scientific, Cat# 781681, Essex, CT). These compounds were tested at concentrations ranging from […] to 150 nM. The kinases plus MBP substrate reactions were incubated with each inhibitor for 30 minutes at 30°C. Equal volumes of kinase assay mix Promega (Cat# V5601, Madison, WI) were added to the kinase/inhibitor reaction after 30 minutes, following the manufacturer’s protocol. ATP luminescence was measured using a microplate reader (SpectraMax L, Molecular Devices, Sunnyvale, CA). IC50 values were calculated from assays done in triplicate by fitting the data using Prism 8.1.1 (GraphPad).
compound,measurement,setting,value
C[C@]12C=CC(=O)C=C1CC[C@@H]1[C@@H]2[C@@H](O)C[C@@]2(C)[C@H]1CC[C@]2(O)C(=O)CO [Prednisolone],IC50,,> 10 mM
same,"raw luminescence, TbERK8","0.00015 (unit uncertain) compound, sheet ADP_ATP_glo081724 (3)",151.546 RLU and 115.356 RLU and 183.213 RLU
same,"raw luminescence, TbERK8","0.00015 (unit uncertain) compound, sheet Kinase_glo 08142024 (2)",851.739 RLU and 832.717 RLU and 648.843 RLU
same,"raw luminescence, TbERK8","0.00015 (unit uncertain) compound, sheet Kinase_glo_080924_IFPS (2)",2863.49 RLU and 2847.77 RLU and 2549.07 RLU
same,"raw luminescence, TbERK8","0.00061 (unit uncertain) compound, sheet ADP_ATP_glo081724 (3)",126.666 RLU and 99.523 RLU and 185.475 RLU
same,"raw luminescence, TbERK8","0.00061 (unit uncertain) compound, sheet Kinase_glo 08142024 (2)",699.567 RLU and 777.766 RLU and 826.377 RLU
same,"raw luminescence, TbERK8","0.00061 (unit uncertain) compound, sheet Kinase_glo_080924_IFPS (2)",1033.1 RLU and 1001.66 RLU and 918.564 RLU
same,"raw luminescence, TbERK8","0.00244 (unit uncertain) compound, sheet ADP_ATP_glo081724 (3)",151.546 RLU and 108.57 RLU and 214.879 RLU
same,"raw luminescence, TbERK8","0.00244 (unit uncertain) compound, sheet Kinase_glo 08142024 (2)",716.475 RLU and 665.751 RLU and 646.73 RLU
same,"raw luminescence, TbERK8","0.00244 (unit uncertain) compound, sheet Kinase_glo_080924_IFPS (2)",2143.15 RLU and 2092.68 RLU and 2029.79 RLU
same,"raw luminescence, TbERK8","0.00977 (unit uncertain) compound, sheet ADP_ATP_glo081724 (3)",255.593 RLU and 147.022 RLU and 271.426 RLU
same,"raw luminescence, TbERK8","0.00977 (unit uncertain) compound, sheet Kinase_glo 08142024 (2)",437.494 RLU and 490.331 RLU and 469.196 RLU
same,"raw luminescence, TbERK8","0.00977 (unit uncertain) compound, sheet Kinase_glo_080924_IFPS (2)",2030.86 RLU and 2806.27 RLU and 2958.99 RLU
same,"raw luminescence, TbERK8","0.03906 (unit uncertain) compound, sheet ADP_ATP_glo081724 (3)",165.118 RLU and 117.618 RLU and 199.046 RLU
same,"raw luminescence, TbERK8","0.03906 (unit uncertain) compound, sheet Kinase_glo 08142024 (2)",667.865 RLU and 653.07 RLU and 765.085 RLU
same,"raw luminescence, TbERK8","0.03906 (unit uncertain) compound, sheet Kinase_glo_080924_IFPS (2)",2637.83 RLU and 2496.34 RLU and 2622.11 RLU
same,"raw luminescence, TbERK8","0.15625 (unit uncertain) compound, sheet ADP_ATP_glo081724 (3)",334.759 RLU and 251.069 RLU and 300.831 RLU
same,"raw luminescence, TbERK8","0.15625 (unit uncertain) compound, sheet Kinase_glo 08142024 (2)",1037.73 RLU and 1041.95 RLU and 1113.81 RLU
same,"raw luminescence, TbERK8","0.15625 (unit uncertain) compound, sheet Kinase_glo_080924_IFPS (2)",2180.42 RLU and 2133.34 RLU and 2264.78 RLU
same,"raw luminescence, TbERK8","0.62500 (unit uncertain) compound, sheet ADP_ATP_glo081724 (3)",495.353 RLU and 366.425 RLU and 545.114 RLU
same,"raw luminescence, TbERK8","0.62500 (unit uncertain) compound, sheet Kinase_glo 08142024 (2)",1265.98 RLU and 1276.55 RLU and 1342.07 RLU
same,"raw luminescence, TbERK8","0.62500 (unit uncertain) compound, sheet Kinase_glo_080924_IFPS (2)",3642.09 RLU and 3777.07 RLU and 3651.3 RLU
same,"raw luminescence, TbERK8","2.50000 (unit uncertain) compound, sheet ADP_ATP_glo081724 (3)",791.659 RLU and 658.208 RLU and 870.825 RLU
same,"raw luminescence, TbERK8","2.50000 (unit uncertain) compound, sheet Kinase_glo 08142024 (2)",2855.33 RLU and 2339.64 RLU and 2348.09 RLU
same,"raw luminescence, TbERK8","2.50000 (unit uncertain) compound, sheet Kinase_glo_080924_IFPS (2)",13901.1 RLU and 13588.9 RLU and 13357.6 RLU
same,"raw luminescence, TbERK8","10.00000 (unit uncertain) compound, sheet ADP_ATP_glo081724 (3)",8500.16 RLU and 8653.97 RLU and 8624.56 RLU
same,"raw luminescence, TbERK8","10.00000 (unit uncertain) compound, sheet Kinase_glo 08142024 (2)",38026 RLU and 38805.9 RLU and 42117.7 RLU
same,"raw luminescence, TbERK8","10.00000 (unit uncertain) compound, sheet Kinase_glo_080924_IFPS (2), signal = ATP left",19789.8 RLU and 19980.7 RLU and 19481.5 RLU
same,Luminescence Raw (Kinase-Glo),"inhibitor 0.00976562 mM, sheet Sil_Pred3, read 3",32992.2 and 33121 and 33174.9
same,Luminescence Raw (Kinase-Glo),"inhibitor 0.0195312 mM, sheet Sil_Pred3, read 3",38593.5 and 41076.8 and 40952.6
same,Luminescence Raw (Kinase-Glo),"inhibitor 0.0390625 mM, sheet Sil_Pred3, read 3",46486.1 and 45877 and 46038.6
same,Luminescence Raw (Kinase-Glo),"inhibitor 0.078125 mM, sheet Sil_Pred3, read 3",44202 and 48636.7 and 49203.6
same,Luminescence Raw (Kinase-Glo),"inhibitor 0.15625 mM, sheet Sil_Pred3, read 3",45380.3 and 46230.7 and 46420.5
same,Luminescence Raw (Kinase-Glo),"inhibitor 0.3125 mM, sheet Sil_Pred3, read 3",39235.4 and 40486.4 and 39917.2
same,Luminescence Raw (Kinase-Glo),"inhibitor 0.625 mM, sheet Sil_Pred3, read 3",39298.7 and 39928.9 and 40873
same,Luminescence Raw (Kinase-Glo),"inhibitor 0.00976562, sheet Sil_Pred1, read 1",36007.1 and 35961.3 and 35122.3
same,Luminescence Raw (Kinase-Glo),"inhibitor 0.00976562, sheet Sil_Pred2, read 2",32848.9 and 34114.2 and 33997.9
same,Luminescence Raw (Kinase-Glo),"inhibitor 0.0195312, sheet Sil_Pred1, read 1",43841.6 and 45072.5 and 44815.8
same,Luminescence Raw (Kinase-Glo),"inhibitor 0.0195312, sheet Sil_Pred2, read 2",39947.1 and 42452 and 42749.7
same,Luminescence Raw (Kinase-Glo),"inhibitor 0.0390625, sheet Sil_Pred1, read 1",50695.1 and 50667.6 and 49805.8
same,Luminescence Raw (Kinase-Glo),"inhibitor 0.0390625, sheet Sil_Pred2, read 2",46810.4 and 47329.1 and 47238.4
same,Luminescence Raw (Kinase-Glo),"inhibitor 0.078125, sheet Sil_Pred1, read 1",49017.3 and 54222.7 and 54701.7
same,Luminescence Raw (Kinase-Glo),"inhibitor 0.078125, sheet Sil_Pred2, read 2",44868.4 and 49845.5 and 51285.2
same,Luminescence Raw (Kinase-Glo),"inhibitor 0.15625, sheet Sil_Pred1, read 1",51194.8 and 52235.4 and 51680.7
same,Luminescence Raw (Kinase-Glo),"inhibitor 0.15625, sheet Sil_Pred2, read 2",47366.3 and 47915.2 and 47922.2
same,Luminescence Raw (Kinase-Glo),"inhibitor 0.3125, sheet Sil_Pred1, read 1",44343.6 and 45716.6 and 43953.9
same,Luminescence Raw (Kinase-Glo),"inhibitor 0.3125, sheet Sil_Pred2, read 2",41235.6 and 41775.2 and 41631
same,Luminescence Raw (Kinase-Glo),"inhibitor 0.625, sheet Sil_Pred1, read 1",43960.8 and 44712.6 and 44414.7
same,Luminescence Raw (Kinase-Glo),"inhibitor 0.625, sheet Sil_Pred2, read 2",40144.8 and 41517 and 41924
